Measured values from publication PMC3399817 (PLoS ONE, 2012).

What was measured:
Test in all cases: KINOMEscan
Type in all cases: binding
[1] = molecular target: T1, ABL1(F317I)-nonphosphorylated (Homo sapiens, UniProt P00519, F317I); settings: 1 uM
T1 construct: purchased Ambit KINOMEscan (DiscoverX)
In short: (§1)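 A binding-competition profile was run with every compound fixed at 1 μM; hits were kinases showing inhibited substrate binding.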

[2] = molecular target: T2, ACVR2A (Homo sapiens, UniProt P27037); settings: 1 uM
T2 construct: purchased Ambit KINOMEscan (DiscoverX)
T2 sequence (P27037 20-513): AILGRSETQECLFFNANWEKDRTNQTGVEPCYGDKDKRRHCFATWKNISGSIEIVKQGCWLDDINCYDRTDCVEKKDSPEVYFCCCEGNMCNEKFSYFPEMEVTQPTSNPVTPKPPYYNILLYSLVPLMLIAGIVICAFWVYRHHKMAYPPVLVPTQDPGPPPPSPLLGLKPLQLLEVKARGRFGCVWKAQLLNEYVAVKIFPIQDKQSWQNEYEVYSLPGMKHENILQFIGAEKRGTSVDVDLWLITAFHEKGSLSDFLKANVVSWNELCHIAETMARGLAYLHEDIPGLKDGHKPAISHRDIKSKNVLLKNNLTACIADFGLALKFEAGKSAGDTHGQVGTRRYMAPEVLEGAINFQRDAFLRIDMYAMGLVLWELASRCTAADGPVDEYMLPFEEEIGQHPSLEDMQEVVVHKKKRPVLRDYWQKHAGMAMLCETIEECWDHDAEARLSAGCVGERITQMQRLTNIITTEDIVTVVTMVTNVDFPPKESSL
In short: as §1

[3] = molecular target: T3, DCAMKL1 (Homo sapiens, UniProt O15075); settings: DCAMKL1, 1 uM
T3 construct: purchased Ambit KINOMEscan (DiscoverX)
In short: as §1

[4] = molecular target: T4, DDR1 (Homo sapiens, UniProt Q08345); settings: DDR1, 1 uM
T4 construct: purchased Ambit KINOMEscan (DiscoverX)
T4 sequence (Q08345 19-913): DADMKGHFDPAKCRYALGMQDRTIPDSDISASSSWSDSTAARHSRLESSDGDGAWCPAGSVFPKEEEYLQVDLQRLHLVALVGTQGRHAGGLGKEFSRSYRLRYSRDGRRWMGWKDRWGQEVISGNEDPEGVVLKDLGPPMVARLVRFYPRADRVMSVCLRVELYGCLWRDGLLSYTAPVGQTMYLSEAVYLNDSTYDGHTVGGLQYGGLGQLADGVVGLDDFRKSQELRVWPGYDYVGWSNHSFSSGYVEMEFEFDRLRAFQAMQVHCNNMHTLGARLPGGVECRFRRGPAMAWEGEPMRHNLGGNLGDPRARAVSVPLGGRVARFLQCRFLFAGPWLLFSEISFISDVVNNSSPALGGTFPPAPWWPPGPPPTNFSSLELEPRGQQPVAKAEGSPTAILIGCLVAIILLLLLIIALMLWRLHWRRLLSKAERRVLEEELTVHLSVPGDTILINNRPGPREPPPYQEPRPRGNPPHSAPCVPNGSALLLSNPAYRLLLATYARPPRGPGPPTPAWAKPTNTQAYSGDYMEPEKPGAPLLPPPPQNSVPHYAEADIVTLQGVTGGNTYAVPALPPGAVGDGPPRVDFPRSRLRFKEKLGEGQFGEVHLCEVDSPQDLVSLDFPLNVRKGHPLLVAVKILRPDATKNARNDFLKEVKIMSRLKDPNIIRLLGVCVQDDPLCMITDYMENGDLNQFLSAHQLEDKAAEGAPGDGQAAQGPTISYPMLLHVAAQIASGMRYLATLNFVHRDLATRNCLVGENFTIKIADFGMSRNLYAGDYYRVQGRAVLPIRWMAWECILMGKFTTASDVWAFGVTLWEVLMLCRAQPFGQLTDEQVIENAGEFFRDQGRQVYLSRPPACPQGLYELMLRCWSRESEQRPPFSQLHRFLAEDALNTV
In short: as §1

[5] = molecular target: T5, DMPK (Homo sapiens, UniProt Q09013); settings: 1 uM
T5 construct: purchased Ambit KINOMEscan (DiscoverX)
In short: as §1

[6] = molecular target: T6, EGFR (Homo sapiens, UniProt P00533); settings: 1 uM
T6 construct: purchased Ambit KINOMEscan (DiscoverX)
In short: as §1

[7] = molecular target: T7, EGFR(G719S) (Homo sapiens, UniProt P00533, G719S); settings: 1 uM
T7 construct: purchased Ambit KINOMEscan (DiscoverX)
In short: as §1

[8] = molecular target: T8, EGFR(L747-T751del,Sins) (Homo sapiens, UniProt P00533, DEL747-750/T751S); settings: 1 uM
T8 construct: purchased Ambit KINOMEscan (DiscoverX)
T8 sequence (P00533 with tags, fused parts or gaps DEL747-750/T751S limits assumed): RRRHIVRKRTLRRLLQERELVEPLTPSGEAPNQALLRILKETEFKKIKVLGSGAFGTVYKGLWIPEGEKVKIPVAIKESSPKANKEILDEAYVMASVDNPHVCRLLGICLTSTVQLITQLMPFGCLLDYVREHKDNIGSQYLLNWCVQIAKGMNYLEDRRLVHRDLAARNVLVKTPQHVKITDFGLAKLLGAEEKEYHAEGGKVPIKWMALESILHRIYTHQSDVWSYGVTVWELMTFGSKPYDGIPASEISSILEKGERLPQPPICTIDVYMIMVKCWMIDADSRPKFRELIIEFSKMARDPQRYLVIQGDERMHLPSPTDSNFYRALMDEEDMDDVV
In short: as §1

[9] = molecular target: T9, GRK4 (Homo sapiens, UniProt P32298); settings: GRK4, 1 uM
T9 construct: purchased Ambit KINOMEscan (DiscoverX)
In short: as §1

[10] = molecular target: T10, KIT(V559D,T670I) (Homo sapiens, UniProt P10721, T670I/V559D); settings: 1 uM
T10 construct: purchased Ambit KINOMEscan (DiscoverX)
In short: as §1

[11] = molecular target: T11, MUSK (Homo sapiens, UniProt O15146); settings: 1 uM
T11 construct: purchased Ambit KINOMEscan (DiscoverX)
In short: as §1

[12] = molecular target: T12, NDR2 (Homo sapiens, UniProt Q9Y2H1); settings: NDR2, 1 uM
T12 construct: purchased Ambit KINOMEscan (DiscoverX)
T12 sequence (Q9Y2H1 whole entry): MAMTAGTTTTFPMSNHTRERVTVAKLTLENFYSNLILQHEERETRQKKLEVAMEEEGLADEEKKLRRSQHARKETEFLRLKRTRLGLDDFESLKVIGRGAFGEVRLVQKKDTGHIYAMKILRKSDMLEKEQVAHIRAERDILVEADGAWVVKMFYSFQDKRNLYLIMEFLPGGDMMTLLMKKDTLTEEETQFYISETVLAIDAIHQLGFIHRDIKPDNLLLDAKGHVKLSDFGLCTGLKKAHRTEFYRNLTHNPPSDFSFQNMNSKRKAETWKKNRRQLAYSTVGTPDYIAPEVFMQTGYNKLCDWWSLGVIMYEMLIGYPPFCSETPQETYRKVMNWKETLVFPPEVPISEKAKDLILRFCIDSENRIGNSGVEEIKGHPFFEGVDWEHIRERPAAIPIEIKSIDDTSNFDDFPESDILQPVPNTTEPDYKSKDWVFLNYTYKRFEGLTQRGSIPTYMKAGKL
In short: as §1

[13] = molecular target: T13, NEK1 (Homo sapiens, UniProt Q96PY6); settings: for % binding compared to no inhibitor control: NEK1, 1 uM
T13 construct: purchased Ambit KINOMEscan (DiscoverX)
T13 sequence (Q96PY6 1-1258): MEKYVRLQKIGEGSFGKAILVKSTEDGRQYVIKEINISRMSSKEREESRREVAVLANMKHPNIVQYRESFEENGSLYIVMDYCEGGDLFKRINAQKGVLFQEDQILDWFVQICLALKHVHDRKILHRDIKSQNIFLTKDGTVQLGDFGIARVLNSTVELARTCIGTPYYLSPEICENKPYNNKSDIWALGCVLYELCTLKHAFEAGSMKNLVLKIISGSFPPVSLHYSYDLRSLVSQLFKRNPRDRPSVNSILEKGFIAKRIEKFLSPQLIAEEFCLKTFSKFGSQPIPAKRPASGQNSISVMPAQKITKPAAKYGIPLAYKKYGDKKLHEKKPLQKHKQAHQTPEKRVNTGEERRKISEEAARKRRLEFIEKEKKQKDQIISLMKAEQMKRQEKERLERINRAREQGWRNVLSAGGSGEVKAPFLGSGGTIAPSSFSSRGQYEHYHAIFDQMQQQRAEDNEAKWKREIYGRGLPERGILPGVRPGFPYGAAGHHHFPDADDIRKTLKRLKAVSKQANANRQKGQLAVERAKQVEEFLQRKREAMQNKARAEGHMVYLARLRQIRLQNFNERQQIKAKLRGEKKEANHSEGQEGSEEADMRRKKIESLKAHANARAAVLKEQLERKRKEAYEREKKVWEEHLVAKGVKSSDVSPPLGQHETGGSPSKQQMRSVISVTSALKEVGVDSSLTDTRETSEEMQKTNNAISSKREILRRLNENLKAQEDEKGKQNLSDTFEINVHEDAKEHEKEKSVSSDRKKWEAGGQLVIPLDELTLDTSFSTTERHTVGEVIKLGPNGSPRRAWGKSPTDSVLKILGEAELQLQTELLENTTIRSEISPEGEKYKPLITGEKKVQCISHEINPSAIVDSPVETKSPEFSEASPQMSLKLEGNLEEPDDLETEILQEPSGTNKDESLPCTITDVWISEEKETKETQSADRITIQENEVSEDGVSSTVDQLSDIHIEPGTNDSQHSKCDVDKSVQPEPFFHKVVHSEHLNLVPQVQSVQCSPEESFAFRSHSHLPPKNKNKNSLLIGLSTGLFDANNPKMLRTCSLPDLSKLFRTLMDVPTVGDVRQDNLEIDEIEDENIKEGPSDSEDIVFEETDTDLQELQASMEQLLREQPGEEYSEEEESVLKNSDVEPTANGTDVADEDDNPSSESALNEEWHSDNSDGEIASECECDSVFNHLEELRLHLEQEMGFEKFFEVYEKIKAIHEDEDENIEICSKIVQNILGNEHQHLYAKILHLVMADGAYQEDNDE
In short: as §1

[14] = molecular target: T14, NEK6 (Homo sapiens, UniProt Q9HC98); settings: NEK6, 1 uM
T14 construct: purchased Ambit KINOMEscan (DiscoverX)
In short: as §1

[15] = molecular target: T15, PDPK1 (Homo sapiens, UniProt O15530); settings: PDPK1, 1 uM
T15 construct: purchased Ambit KINOMEscan (DiscoverX)
In short: as §1

[16] = molecular target: T16, PIK3CG (Homo sapiens, UniProt P48736); settings: 1 uM
T16 construct: purchased Ambit KINOMEscan (DiscoverX)
In short: as §1

[17] = molecular target: T17, PIM1 (Homo sapiens, UniProt P11309); settings: PIM1, 1 uM
T17 construct: purchased Ambit KINOMEscan (DiscoverX)
T17 sequence (P11309 whole entry): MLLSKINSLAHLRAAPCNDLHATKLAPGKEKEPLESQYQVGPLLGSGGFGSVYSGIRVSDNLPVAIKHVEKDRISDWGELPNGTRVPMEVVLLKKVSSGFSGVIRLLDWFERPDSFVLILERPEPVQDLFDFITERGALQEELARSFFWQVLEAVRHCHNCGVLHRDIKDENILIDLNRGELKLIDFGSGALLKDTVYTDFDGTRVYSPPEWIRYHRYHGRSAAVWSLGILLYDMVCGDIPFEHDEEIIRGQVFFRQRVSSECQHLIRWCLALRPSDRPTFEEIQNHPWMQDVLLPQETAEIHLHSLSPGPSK
In short: as §1

[18] = molecular target: T18, PIM3 (Homo sapiens, UniProt Q86V86); settings: PIM3, 1 uM
T18 construct: purchased Ambit KINOMEscan (DiscoverX)
In short: as §1

[19] = molecular target: T19, PLK4 (Homo sapiens, UniProt O00444); settings: PLK4, 1 uM
T19 construct: purchased Ambit KINOMEscan (DiscoverX)
In short: as §1

[20] = molecular target: T20, PYK2 (Homo sapiens, UniProt Q14289); settings: PYK2, 1 uM
T20 construct: purchased Ambit KINOMEscan (DiscoverX)
In short: as §1

[21] = molecular target: T21, SIK2 (Homo sapiens, UniProt Q9H0K1); settings: SIK2, 1 uM
T21 construct: purchased Ambit KINOMEscan (DiscoverX)
T21 sequence (Q9H0K1 whole entry): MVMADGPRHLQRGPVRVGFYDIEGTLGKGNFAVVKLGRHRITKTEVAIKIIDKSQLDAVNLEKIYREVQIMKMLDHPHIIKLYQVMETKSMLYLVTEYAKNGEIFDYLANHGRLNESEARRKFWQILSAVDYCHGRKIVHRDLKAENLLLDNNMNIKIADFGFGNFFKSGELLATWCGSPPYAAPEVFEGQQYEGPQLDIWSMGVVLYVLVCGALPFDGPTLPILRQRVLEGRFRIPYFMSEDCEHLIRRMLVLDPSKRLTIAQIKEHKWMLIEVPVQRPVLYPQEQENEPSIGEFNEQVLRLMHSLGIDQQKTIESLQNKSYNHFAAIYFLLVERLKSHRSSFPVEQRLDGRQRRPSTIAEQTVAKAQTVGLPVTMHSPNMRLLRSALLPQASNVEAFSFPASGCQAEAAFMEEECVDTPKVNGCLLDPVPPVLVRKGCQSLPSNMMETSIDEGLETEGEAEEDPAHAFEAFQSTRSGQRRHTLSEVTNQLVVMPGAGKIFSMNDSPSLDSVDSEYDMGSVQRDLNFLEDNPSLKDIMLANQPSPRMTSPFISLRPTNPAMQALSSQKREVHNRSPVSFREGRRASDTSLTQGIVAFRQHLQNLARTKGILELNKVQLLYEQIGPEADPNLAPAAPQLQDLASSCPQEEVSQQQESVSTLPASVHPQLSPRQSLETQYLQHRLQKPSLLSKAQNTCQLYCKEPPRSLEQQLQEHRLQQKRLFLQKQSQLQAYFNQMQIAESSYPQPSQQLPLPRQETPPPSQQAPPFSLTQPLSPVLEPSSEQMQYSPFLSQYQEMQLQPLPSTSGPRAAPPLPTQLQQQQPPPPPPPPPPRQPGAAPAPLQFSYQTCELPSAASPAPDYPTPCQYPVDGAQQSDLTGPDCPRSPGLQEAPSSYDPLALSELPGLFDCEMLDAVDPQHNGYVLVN
In short: as §1

[22] = molecular target: T22, TAOK1 (Homo sapiens, UniProt Q7L7X3); settings: TAOK1, 1 uM
T22 construct: purchased Ambit KINOMEscan (DiscoverX)
In short: as §1

[23] = molecular target: T23, YSK4 (Homo sapiens, UniProt Q56UN5); settings: YSK4, 1 uM
T23 construct: purchased Ambit KINOMEscan (DiscoverX)
T23 sequence (Q56UN5 whole entry): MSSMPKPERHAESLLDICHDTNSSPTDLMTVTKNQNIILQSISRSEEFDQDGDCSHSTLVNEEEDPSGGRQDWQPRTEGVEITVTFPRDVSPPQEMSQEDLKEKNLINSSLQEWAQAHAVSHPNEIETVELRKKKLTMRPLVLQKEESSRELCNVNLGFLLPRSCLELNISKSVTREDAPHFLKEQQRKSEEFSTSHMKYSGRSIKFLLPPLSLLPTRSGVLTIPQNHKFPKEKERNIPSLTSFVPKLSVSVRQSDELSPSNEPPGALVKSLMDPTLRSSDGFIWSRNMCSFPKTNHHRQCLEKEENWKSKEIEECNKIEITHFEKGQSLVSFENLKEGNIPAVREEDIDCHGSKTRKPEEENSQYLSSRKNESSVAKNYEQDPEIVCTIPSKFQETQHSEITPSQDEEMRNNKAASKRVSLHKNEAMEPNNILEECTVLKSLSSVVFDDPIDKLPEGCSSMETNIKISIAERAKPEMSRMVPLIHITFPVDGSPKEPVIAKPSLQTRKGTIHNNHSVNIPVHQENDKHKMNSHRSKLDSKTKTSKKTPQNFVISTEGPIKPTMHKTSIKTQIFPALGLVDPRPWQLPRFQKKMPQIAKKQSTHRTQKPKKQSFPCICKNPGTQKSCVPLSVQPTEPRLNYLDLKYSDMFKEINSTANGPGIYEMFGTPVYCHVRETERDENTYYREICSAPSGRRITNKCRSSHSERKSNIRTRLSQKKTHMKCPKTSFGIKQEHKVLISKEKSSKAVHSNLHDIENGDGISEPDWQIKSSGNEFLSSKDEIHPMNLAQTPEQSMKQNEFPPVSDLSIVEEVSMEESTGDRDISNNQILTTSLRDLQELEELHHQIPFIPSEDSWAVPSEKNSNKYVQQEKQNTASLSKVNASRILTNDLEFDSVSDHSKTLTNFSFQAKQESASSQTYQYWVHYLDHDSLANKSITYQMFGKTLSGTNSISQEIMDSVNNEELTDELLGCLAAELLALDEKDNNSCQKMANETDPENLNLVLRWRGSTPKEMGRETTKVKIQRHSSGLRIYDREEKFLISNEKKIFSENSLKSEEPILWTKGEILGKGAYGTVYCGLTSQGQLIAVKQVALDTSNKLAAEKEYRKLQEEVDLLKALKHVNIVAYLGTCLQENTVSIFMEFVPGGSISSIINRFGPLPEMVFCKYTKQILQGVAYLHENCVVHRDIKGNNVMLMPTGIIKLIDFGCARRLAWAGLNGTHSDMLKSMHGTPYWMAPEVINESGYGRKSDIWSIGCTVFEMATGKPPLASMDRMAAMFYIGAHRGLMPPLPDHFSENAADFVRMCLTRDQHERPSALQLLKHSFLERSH
In short: as §1

[24] = molecular target: T24, p38-beta (Homo sapiens, UniProt Q15759); settings: 1 uM
T24 construct: purchased Ambit KINOMEscan (DiscoverX)
In short: as §1

Row | Compound | % binding compared to no inhibitor control [1] [%] | % binding compared to no inhibitor control [2] [%] | % binding compared to no inhibitor control [3] [%] | % binding compared to no inhibitor control [4] [%] | % binding compared to no inhibitor control [5] [%] | % binding compared to no inhibitor control [6] [%] | % binding compared to no inhibitor control [7] [%] | % binding compared to no inhibitor control [8] [%] | % binding compared to no inhibitor control [9] [%] | % binding compared to no inhibitor control [10] [%] | % binding compared to no inhibitor control [11] [%] | % binding compared to no inhibitor control [12] [%] | % binding compared to no inhibitor control [13] [%] | % binding compared to no inhibitor control [14] [%] | % binding compared to no inhibitor control [15] [%] | % binding compared to no inhibitor control [16] [%] | % binding compared to no inhibitor control [17] [%] | % binding compared to no inhibitor control [18] [%] | % binding compared to no inhibitor control [19] [%] | % binding compared to no inhibitor control [20] [%] | further results
1 | COc1ccccc1Nc1nc(-c2ccc(OC)c(OC)c2)cc2nccn12 [BAY derivative 6] | 100 | 100 | 87 | 100 | 100 | 100 | 100 | 89 | 100 | 87 | 100 | 93 | 91 | 100 | 100 | 100 | 100 | 82 | 100 | 100 | % binding compared to no inhibitor control [21]: 64%; % binding compared to no inhibitor control [22]: 100%; % binding compared to no inhibitor control [23]: 60%; % binding compared to no inhibitor control [24]: 80%
2 | COc1ccc(-c2cc3nccn3c(Nc3ncccc3C(N)=O)n2)cc1OC.Cl.Cl [BAY61-3606, 2-[7-(3,4-dimethoxyphenyl)-imidazo [1,2-c]pyrimidin-5-ylamino] nicotinamide dihydrochloride, reference compound] | 100 | 100 | 93 | 99 | 72 | 87 | 71 | 80 | 73 | 9.3 | 76 | 68 | 27 | 63 | 99 | 26 | 78 | 81 | 35 | 94 | % inhibition ATP binding ([13]; NEK1, KINOMEscan, 1 μM): 73%; % binding compared to no inhibitor control [21]: 100%; % binding compared to no inhibitor control [22]: 95%; % binding compared to no inhibitor control [23]: 1.8%; % binding compared to no inhibitor control [24]: 100%
